Data taken from the NIST ThermoML archive (doi:10.1021/je2006117).
Several values for one entry are separate records, joined by “and”; a condition that tells them apart may be missing. Identical values can stand only once.

Assays:
[1] = refractive index (Na D-line) (dimensionless); mn = molality of the nth substance listed, in mol/kg; details: 298.15 K, 101 kPa, Liquid, Standard Abbe refractometry
[2] = mn = molality of the nth substance listed, in mol/kg; details: 298.15 K, 101 kPa, Liquid; for viscosity: Capillary tube (Ostwald / Ubbelohde) method; for mass density: Vibrating tube method
[3] = 298.15 K, Liquid
[4] = refractive index (Na D-line) (dimensionless); details: 298.15 K; 101.33 kPa; Liquid; Standard Abbe refractometry

CCC[n+]1ccn(C)c1.[Br-] [1-methyl-3-propylimidazolium bromide] + CN(C)C=O
Details	mass density, [2] [kg/m3]	refractive index, [1]	viscosity, [2] [mPa·s]
m1 = 0.0268	945.94	1.4289	0.88
m1 = 0.0444	947.2	1.4296	0.889
m1 = 0.0628	948.49	1.4302	0.897
m1 = 0.0851	950.04	1.4307	0.905
m1 = 0.103	951.26	1.4309	0.917
m1 = 0.1256	952.76	1.4312	0.923
m1 = 0.1396	953.7	1.4317	0.936
m1 = 0.1656	955.41	1.4321	0.956
m1 = 0.1826	956.49	1.4328	0.966
m1 = 0.2057	957.93	1.4336	0.975

CCCCCn1cc[n+](C)c1.[Br-] [1-pentyl-3-methylimidazolium bromide] + CN(C)C=O
Details	mass density, [2] [kg/m3]	refractive index, [1]	viscosity, [2] [mPa·s]
m1 = 0.0201	945.2	1.4291	0.877
m1 = 0.0409	946.55	1.4297	0.89
m1 = 0.0618	947.88	1.4299	0.899
m1 = 0.0853	949.36	1.4309	0.912
m1 = 0.1009	950.32	1.4312	0.925
m1 = 0.1186	951.39	1.4317	0.942
m1 = 0.1433	952.9	1.432	0.957
m1 = 0.161	953.93	1.4323	0.965
m1 = 0.1798	955.02	1.4329	0.982
m1 = 0.205	956.48	1.4333	0.991

C(=NCCN=Cc1ccccn1)c1ccccn1 [N,N'-bis(2-pyridinylmethylene)-1,2-ethanediamine] + CN(C)C=O
[2]
Details	mass density
m1 = 0.0401	945.31 kg/m3
m1 = 0.0484	945.37 kg/m3
m1 = 0.0728	946.33 kg/m3
m1 = 0.0941	946.67 kg/m3
m1 = 0.1205	947.34 kg/m3
m1 = 0.1508	948.27 kg/m3
m1 = 0.1553	949.12 kg/m3 and 949.25 kg/m3

CN(C)C=O [dimethylformamide]
[3]
Details	mass density	viscosity [mPa·s]
101 kPa, Vibrating tube method	943.88 kg/m3 and 943.99 kg/m3	–
101.33 kPa, Capillary tube (Ostwald / Ubbelohde) method	–	0.8608

Details	mass density [kg/m3]
[3], 101.33 kPa	943.88

Details	refractive index
[4]	1.4285
